Experimental data taken from publication PMC2929268 (The Journal of organic chemistry, 2010).

Experiments:
hMC4R [1] = molecular target: T1, hMC4R (Homo sapiens, UniProt P32245); assay: Assay A: europium-based competitive binding assay with probe 17; settings: over the range of concentrations tested
hMC4R [2] = molecular target: T1, hMC4R; assay: Assay B: europium-based competitive binding assay with probe 18; settings: over the range of concentrations tested

T1 sequence (P32245 whole entry): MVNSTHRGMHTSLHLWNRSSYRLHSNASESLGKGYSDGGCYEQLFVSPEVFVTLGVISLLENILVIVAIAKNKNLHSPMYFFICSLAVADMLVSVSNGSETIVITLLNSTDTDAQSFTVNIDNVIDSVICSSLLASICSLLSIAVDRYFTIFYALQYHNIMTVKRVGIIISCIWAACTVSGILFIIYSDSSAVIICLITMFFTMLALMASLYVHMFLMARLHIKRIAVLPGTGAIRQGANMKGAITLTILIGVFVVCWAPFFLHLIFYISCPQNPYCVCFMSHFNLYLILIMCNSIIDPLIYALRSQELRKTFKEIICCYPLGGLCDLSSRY

blocking probe 17 from binding to hMC4R (hMC4R [1]): ineffective
blocking probe 18 from binding to hMC4R (hMC4R [2]): ineffective
Compound: CCCCc1cn(CCCCCC(=O)NC(CO)C(N)=O)nn1 (centres unmarked) [Compound 11, N-(1-Amino-3-hydroxy-1-oxopropan-2-yl)-6-(4-butyl-1H-1,2,3-triazol-1-yl)hexanamide]
